In patent US7872045B2, “Combination therapy for glaucoma treatment” (Allergan, Inc., priority 2001, dated 2011) one finds IC50 data, which are given here for 12 compounds.

Test [1] deals with T1, human EP2 receptor (hEP2) (Homo sapiens, UniProt P43116).
T1 construct: expressed in transfected cells; plasma membrane fraction
As to the kind of experiment: Radioligand binding competition vs [3H]PGE2, human recombinant EP2 receptor. To be noted: [3H]PGE2 competition, plasma membranes of HEK-293 stable transfectants, 60 min 25° C. As for the experimental part: (§1) Human Recombinant EP1, EP2, EP4, and FP Receptors: Stable Transfectants
(§2) HEK-293 cells stably expressing the human or feline FP receptor, or EP1, EP2, EP3, or EP4 receptors were washed with TME buffer, scraped from the bottom of the flasks, and homogenized for 30 sec using a Brinkman PT 10/35 polytron. TME buffer was added to achieve a final 40 ml volume in the centrifuge tubes (the composition of TME is […]; ION HCl is added to achieve a pH of 7.4).
(§3) The cell homogenate was centrifuged at 19000 r.p.m. for 20 min at 4° C. using a Beckman Ti-60 rotor. The resultant pellet was resuspended in TME buffer to give a final 1 mg/ml protein concentration, as determined by Biorad assay. Radioligand binding competition assays vs. [^3H-]17 -phenyl PGF2α (5 nM) were performed in a 100 μl volume for 60 min. Binding reactions were started by adding plasma membrane fraction. The reaction was terminated by the addition of 4 ml ice-cold TRIS-HCl buffer and rapid filtration through glass fiber GF/B filters using a Brandel cell harvester. The filters were washed 3 times with ice-cold buffer and oven dried for one hour. Non-specific binding was determined with 10 uM unlabeled 17 -phenyl PGF2α.
(§4) [^3H-] PGE2 (5 nM; specific activity 180 Ci mmol) was used as the radioligand for EP receptors. Binding studies employing EP1, EP2, EP3, EP4 were performed in duplicate in at least three separate experiments. A 200 μl assay volume was used. Incubations were for 60 min at 25° C. and were terminated by the addition of 4 ml of ice-cold 50 mM TRIS-HCl, followed by rapid filtration through Whatman GF/B filters and three additional 4 ml washes in a cell harvester (Brandel). Non-specific binding determined with 10^−5M of unlabeled PGE2,.
(§5) Plasmids encoding the human EP1, EP2, EP4, and FP receptors were prepared by cloning the respective coding sequences into the eukaryotic expression vector pCEP4 (Invitrogen). The pCEP4 vector contains an Epstein Barr virus (EBV) origin of replication, which permits episomal replication in primate cell lines expressing EBV nuclear antigen (EBNA-1). Similarly, competitive experiments were caried out using [3H]17-phenylPGF2α at 5 nM in the presence of test ligands at various concentrations. Also non-specific binding was, determined in the presence of excess unlabeled PGF2α (10^−5 M).
(§6) It also contains a hygromycin resistance gene that is used for eukaryotic selection. The cells employed for stable transfection were human embryonic kidney cells (HEK-293) that were transfected with and express the EBNA-1 protein. These HEK-293-EBNA cells (Invitrogen) were grown in medium containing Geneticin (G418) to maintain expression of the EBNA-1 protein. HEK-293 cells were grown in DMEM with 10% fetal bovine serum (FBS), 250 μg ml G418 (Life Technologies) and 200 μg ml^−1 gentamicin or penicillin/streptomycin.
(§7) For transfection, the cells were grown to 50-60% confluency on 10 cm plates. The plasmid pCEP4 incorporating cDNA inserts for the respective human prostanoid receptor (20 μg) was added to 500 μl of 250 mM CaCl2. HEPES buffered saline ×2 (2×HBS, 280 mM NaCl, 20 mM HEPES acid, 1.5 mM Na2 HPO4, pH 7.05-7.12) was then added dropwise to a total of […], with continuous vortexing at room temperature. After 30 min, 9 ml DMEM were added to the mixture. The DNA/DMEM/calcium phosphate mixture was then added to the cells, which had been previously rinsed with 10 ml PBS. The cells were then incubated for 5 hr at 37° C. in humidified 95% air/5% CO2. The calcium phosphate solution was then removed and the cells were treated with 10% glycerol in DMEM for 2 min. The glycerol solution was then replaced by DMEM with 10% FBS. The cells were incubated overnight and the medium was replaced by DMEM/10% FBS containing 250 μg ml^−1 G418 and penicillin/streptomycin. The following day hygromycin B was added to a final concentration of 200 μg ml^−1. […]

Test [2] addresses T2, human EP3 receptor (hEP3, D isoform) (Homo sapiens, UniProt P43115).
T2 construct: expressed in transfected cells; host or cells: COS-7 cells, transient transfection with pcDNA3 (lipofectin); plasma membrane fraction
T2 sequence (P43115 1-374 isoform P43115-4): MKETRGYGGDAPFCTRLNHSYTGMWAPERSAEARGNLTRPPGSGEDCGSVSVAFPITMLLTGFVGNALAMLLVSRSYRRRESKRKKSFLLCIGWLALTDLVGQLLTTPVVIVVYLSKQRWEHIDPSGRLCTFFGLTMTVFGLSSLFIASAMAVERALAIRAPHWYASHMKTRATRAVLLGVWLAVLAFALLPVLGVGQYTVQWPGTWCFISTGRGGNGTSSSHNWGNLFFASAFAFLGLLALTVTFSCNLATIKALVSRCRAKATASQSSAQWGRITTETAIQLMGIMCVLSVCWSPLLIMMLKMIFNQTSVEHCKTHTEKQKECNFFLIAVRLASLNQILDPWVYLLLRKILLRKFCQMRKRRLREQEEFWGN
Put plainly: Radioligand binding competition vs [3H]PGE2, human recombinant EP3 receptor. To be noted: [3H]PGE2 competition, plasma membranes of transfected cells (COS-7 transient; HEK-293 also named), 60 min 25° C. The protocol:
as §2, §4
Human Recombinant EP3 and TP Receptors: Transient Transfectants.
Plasmids encoding the human EP3 (D isoform) or TP receptor were prepared by cloning the respective coding sequences into a pcDNA3 vector (Invitrogen). COS-7 cells were transfected with pcDNA3 containing cDNA encoding the EP3 or TP receptor by employing the lipofectin method, according to the manufacturers instructions (Gibco). For radioligand binding studies, cells were harvested two days after transfection.
Radioligand binding studies on plasma membrane fractions prepared from cells were performed as follows. Cells washed with TME buffer were scraped from the bottom of the plates and homogenized for 30 sec using a Brinkman PT 10/35 polytron. TME buffer was added as necessary to achieve a 40 ml volume in the centrifuge tubes. TME is comprised of 50 mM TRIS base, 10 mM MgCl2, 1 mM EDTA; pH 7.4 is achieved by adding 1 N HCl. The cell homogenate was centrifuged at 19,000 rpm for 20-25 min at 4° C. using a Beckman Ti-60 or T ? -70 rotor. The pellet was then resuspended in TME buffer to provide a final protein concentration of 1 mg/ml, as determined by Bio-Rad assay. Radioligand binding assays were performed in a 100 μl or 200 μl volume.
The binding of [^3H] PGE2 (specific activity 165 Ci/mmol) was determined in duplicate and, in at least 3 separate experiments. Incubations were for 60 min at 25° C. and were terminated by the addition of 4 ml of ice-cold 50 mM TRIS-HCl followed by rapid filtration through Whatman GF/B filters and three additional 4 ml washes in a cell harvester (Brandel). Competition studies were performed using a final concentration of 2.5 or 5 nM [H] PGE2 and non-specific binding was determined with 10^−5 M unlabelled PGE2.

In test [3] the target is T3, human EP4 receptor (hEP4) (Homo sapiens, UniProt P35408).
T3 construct: expressed in transfected cells; plasma membrane fraction
As to the kind of experiment: Radioligand binding competition vs [3H]PGE2, human recombinant EP4 receptor. To be noted: [3H]PGE2 competition, plasma membranes of HEK-293 stable transfectants, 60 min 25° C. The protocol: as §1, §2, §3, §4, §5, §6, §7

By IC50 is commonly meant the point on the concentration scale where inhibition reaches its midpoint.

Some results are limits rather than exact numbers.

T3 sequence (P35408 whole entry): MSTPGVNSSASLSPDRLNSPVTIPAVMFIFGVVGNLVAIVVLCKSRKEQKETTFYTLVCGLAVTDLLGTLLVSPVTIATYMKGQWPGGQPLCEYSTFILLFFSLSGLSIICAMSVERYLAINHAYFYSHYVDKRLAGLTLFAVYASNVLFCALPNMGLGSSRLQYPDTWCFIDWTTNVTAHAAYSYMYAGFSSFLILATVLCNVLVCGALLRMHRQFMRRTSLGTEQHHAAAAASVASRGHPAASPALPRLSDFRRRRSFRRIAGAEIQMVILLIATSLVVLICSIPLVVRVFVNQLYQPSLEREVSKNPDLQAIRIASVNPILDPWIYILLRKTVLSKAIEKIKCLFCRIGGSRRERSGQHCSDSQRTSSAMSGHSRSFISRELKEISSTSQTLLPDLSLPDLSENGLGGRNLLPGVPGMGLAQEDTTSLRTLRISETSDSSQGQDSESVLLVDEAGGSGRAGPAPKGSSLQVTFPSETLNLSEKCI
T1 sequence (P43116 whole entry): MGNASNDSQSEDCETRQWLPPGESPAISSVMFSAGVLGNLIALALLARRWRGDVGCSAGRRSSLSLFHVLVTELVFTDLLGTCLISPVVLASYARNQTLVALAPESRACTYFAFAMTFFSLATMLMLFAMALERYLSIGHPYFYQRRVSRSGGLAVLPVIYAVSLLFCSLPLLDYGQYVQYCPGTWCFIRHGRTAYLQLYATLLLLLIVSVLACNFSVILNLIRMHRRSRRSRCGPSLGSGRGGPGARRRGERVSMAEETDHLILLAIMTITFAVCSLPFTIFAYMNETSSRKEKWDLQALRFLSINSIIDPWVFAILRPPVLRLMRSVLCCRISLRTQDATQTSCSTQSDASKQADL

Turning to `O=C(O)CSCCCS[C@H]1C(=O)C[C@@H](O)[C@@H]1/C=C/C(O)CCc1ccc2ccccc2c1` (single isomer, unassigned) [Example 10H], the IC50 in test [1] was over 10 µM; in test [2], over 10 µM; in test [3], 0.45 µM.
`O=C(O)CSCCCS[C@H]1C(=O)C[C@@H](O)[C@@H]1/C=C/C(O)CCc1ccc2ccccc2c1` (single isomer, unassigned) [Example 10L]: the IC50 was over 10 µM in test [1], 8.3 µM in test [2] and 0.0195 µM in test [3].
In the same order, the values of `O=C(O)CSCCCS[C@H]1C(=O)C[C@@H](O)[C@@H]1/C=C/C(O)Cc1ccc2ccccc2c1` (single isomer, unassigned) [Example 22L] are over 10 µM, over 10 µM and 0.0062 µM.
In the same order, the values of `COC(=O)CSCCCS[C@H]1C(=O)C[C@@H](O)[C@@H]1/C=C/C(O)Cc1csc2ccccc12` (single isomer, unassigned) [Example 24L] are 9.3 µM, over 10 µM and 0.03 µM.
As to `O=C(O)CSCCCS[C@H]1C(=O)C[C@@H](O)[C@@H]1/C=C/C(O)Cc1csc2ccccc12` (single isomer, unassigned) [Example 25H], the values for the IC50 in test [1] and in test [3] were over 10 µM and 0.069 µM, respectively.
For the compound `O=C(O)CSCCCS[C@H]1C(=O)C[C@@H](O)[C@@H]1/C=C/C(O)Cc1csc2ccccc12` (single isomer, unassigned) [Example 25L], the results for the IC50 in test [1], in test [2] and in test [3] were 2.2 µM, over 10 µM and 0.005 µM, respectively.
In the case of `COC(=O)CSCCCS[C@H]1C(=O)C[C@@H](O)[C@@H]1/C=C/[C@@H](O)CCc1cc2ccccc2s1` [Example 13L, {3-[(1R,2S,3R)-3-Hydroxy-2-((S)-(E)-3-hydroxy-5-(benzothienyl)pent-1-enyl)-5-oxocyclopentylsulfanyl]propylsulfanyl}acetic acid methyl ester], the results for the IC50 in test [1], in test [2] and in test [3] were over 10 µM, 7.2 µM and 0.093 µM, respectively.
In the same order, the values of `O=C(O)CSCCCS[C@H]1C(=O)C[C@@H](O)[C@@H]1/C=C/[C@@H](O)CCc1cc2ccccc2s1` [Example 14H, {3-[(1R,2S,3R)-3-Hydroxy-2-((S)-(E)-3-hydroxy-5-(benzothienyl)pent-1-enyl)-5-oxocyclopentylsulfanyl]propylsulfanyl}acetic acid] are over 10 µM, over 10 µM and 0.027 µM.
In the same order, the values of `O=C(O)CSCCCS[C@H]1C(=O)C[C@@H](O)[C@@H]1/C=C/[C@@H](O)CCc1cc2ccccc2s1` [Example 14L, {3-[(1R,2S,3R)-3-Hydroxy-2-((S)-(E)-3-hydroxy-5-(benzothienyl)pent-1-enyl)-5-oxocyclopentylsulfanyl]propylsulfanyl}acetic acid] are at least 10 µM, over 10 µM and 0.013 µM.
Take `CC(O)(/C=C/[C@H]1[C@H](O)CC(=O)[C@@H]1SCCCSCC(=O)O)Cc1ccc2ccccc2c1` (stereo partly drawn) [Example 31L, {3-[(1R,2S,3R)-3-Hydroxy-2-((E)-3-hydroxy-3-methyl-4-naphthalen-2-yl-but-1-enyl)-5-oxocyclopentylsulfanyl]propylsulfanyl}acetic acid]: the IC50 in test [2] amounted to 9.3 µM; in test [3], 0.9 µM.
Take `C[C@@](O)(/C=C/[C@H]1[C@H](O)CC(=O)[C@@H]1SCCCSCC(=O)O)CCc1cc2ccccc2s1` [Example 34H, {3-[(1R,2S,3R)-3-Hydroxy-2-((S)-(E)-3-(hydroxy)-3-(methyl)-5-(benzothienyl)pent-1-enyl)-5-oxocyclopentylsulfanyl]propylsulfanyl}acetic acid]: the values for the IC50 in test [1], in test [2] and in test [3] were over 10 µM, over 10 µM and 0.032 µM, respectively.
For the compound `C[C@@](O)(/C=C/[C@H]1[C@H](O)CC(=O)[C@@H]1SCCCSCC(=O)O)CCc1cc2ccccc2s1` [Example 34L, {3-[(1R,2S,3R)-3-Hydroxy-2-((S)-(E)-3-(hydroxy)-3-(methyl)-5-(benzothienyl)pent-1-enyl)-5-oxocyclopentylsulfanyl]propylsulfanyl}acetic acid], the IC50 in test [2] was over 10 µM; in test [3], 0.068 µM.
